Experimental findings from ChEMBL document CHEMBL1201862, “PubChem BioAssay data set” (2004) are described below.

Test systems include SNB-19; MDA-MB-231; U-251; BT-549; SK-MEL-5; SN12C; MDA-MB-435; SF-268; SF-539; CCRF-CEM; HL-60; MDA-N; UACC-257; CAKI-1; SNB-75; LOX IMVI; HOP-62; Malme-3M; MCF7; SK-MEL-2.
Holding throughout (experiment): inhibition of tumour cell growth, NCI panel, 48 h

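48-hour exposure; five concentrations; linearly interpolated endpoints. Abbreviation: GI50, concentration required for 50% inhibition of growth.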 Calls of active or inactive are those of the source. Rule as the data show it: active = GI50 up to about 1.1 µM and inactive = higher.

For `C#CCOCC12C=CC(O1)C1COC(=O)C12` (stereo not given), the GI50 in the assay on SNB-19, with MDA-MB-231, with U-251, in the assay with BT-549, in the assay with SK-MEL-5 and with SN12C was > 100 µM (inactive) throughout. Further, the GI50 in the assay with MDA-MB-435, with SF-268, in the assay on SF-539, with CCRF-CEM, in the assay with HL-60 and with MDA-N was > 100 µM (inactive) throughout. Further, the GI50 in the assay with UACC-257, in the assay on CAKI-1, in the assay on SNB-75, in the assay on LOX IMVI, with HOP-62 and in the assay with Malme-3M was > 100 µM (inactive) throughout.
For the compound `CC12CCC(C/C1=N\NC(N)=O)C2(C)C` (stereo not given), the GI50 in the assay on SNB-19, in the assay with U-251, in the assay on MCF7, in the assay on BT-549, in the assay on SK-MEL-5 and in the assay on SN12C was > 100 µM (inactive) throughout. The GI50 with MDA-MB-435, with SF-268, in the assay on SK-MEL-2, in the assay on CCRF-CEM, in the assay with HL-60 and in the assay with MDA-N was > 100 µM (inactive) throughout. In addition, the GI50 in the assay on UACC-257, with CAKI-1, with SNB-75, in the assay on LOX IMVI, in the assay with HOP-62 and in the assay with Malme-3M was > 100 µM (inactive) each time.
For `Oc1cc2c(cc1C(c1ccc3c(c1)OCO3)N1CCN(C(c3ccc4c(c3)OCO4)c3cc4c(cc3O)OCO4)CC1)OCO2` (stereo not given), the GI50 in the assay with SNB-19 is 20.4 µM (inactive); in the assay on MDA-MB-231 it was 15.7 µM (inactive); in the assay on U-251 it was 15.4 µM (inactive); in the assay on MCF7, 27.2 µM (inactive); with BT-549, 13.7 µM (inactive); in the assay on SK-MEL-5, 18.6 µM (inactive). The GI50 is 16 µM (inactive) in the assay on SN12C; 17.7 µM (inactive) in the assay on MDA-MB-435; 18 µM (inactive) in the assay with SF-268; 16.7 µM (inactive) in the assay with SF-539; 19.5 µM (inactive) with SK-MEL-2; 32.5 µM (inactive) in the assay with HL-60. In addition, the GI50 with UACC-257 was 17.6 µM (inactive); in the assay on CAKI-1 it was 20.5 µM (inactive); in the assay with SNB-75, 3.46 µM (inactive); in the assay on LOX IMVI, 3.24 µM (inactive); with HOP-62 it was 21.7 µM (inactive); in the assay with Malme-3M it was 15.6 µM (inactive).
As to `Cc1c2c3ccccc3nc-2n(C)c2ccccc12`, the GI50 in the assay on SNB-19 was 5.35 µM (inactive); with U-251 it was 2.54 µM (inactive); with MCF7 it was 1.41 µM (inactive); with BT-549, 3.71 µM (inactive); with SK-MEL-5, 0.437 µM (active); with SN12C, 1.64 µM (inactive). Besides, the GI50 with MDA-MB-435 is 2.9 µM (inactive); with SF-268, 3.83 µM (inactive); in the assay with SF-539, 2.99 µM (inactive); with CCRF-CEM, 0.724 µM (active); in the assay on HL-60, 3.29 µM (inactive); in the assay with MDA-N, 2.72 µM (inactive). Further, the GI50 with UACC-257 was 2.11 µM (inactive); in the assay on SNB-75, 2.48 µM (inactive); with HOP-62, 3.78 µM (inactive); in the assay with Malme-3M, 2.08 µM (inactive).
